From article PMC9785202, “Changes in Disposition of Ezetimibe and Its Active Metabolites Induced by Impaired Hepatic Function: The Influence of Enzyme and Transporter Activities” (Pharmaceutics, 2022)
Where two headings read alike, the source gives them in different places.

T1: OATP1B3 (Homo sapiens, UniProt Q9NPD5)
T1 sequence (Q9NPD5 1-702): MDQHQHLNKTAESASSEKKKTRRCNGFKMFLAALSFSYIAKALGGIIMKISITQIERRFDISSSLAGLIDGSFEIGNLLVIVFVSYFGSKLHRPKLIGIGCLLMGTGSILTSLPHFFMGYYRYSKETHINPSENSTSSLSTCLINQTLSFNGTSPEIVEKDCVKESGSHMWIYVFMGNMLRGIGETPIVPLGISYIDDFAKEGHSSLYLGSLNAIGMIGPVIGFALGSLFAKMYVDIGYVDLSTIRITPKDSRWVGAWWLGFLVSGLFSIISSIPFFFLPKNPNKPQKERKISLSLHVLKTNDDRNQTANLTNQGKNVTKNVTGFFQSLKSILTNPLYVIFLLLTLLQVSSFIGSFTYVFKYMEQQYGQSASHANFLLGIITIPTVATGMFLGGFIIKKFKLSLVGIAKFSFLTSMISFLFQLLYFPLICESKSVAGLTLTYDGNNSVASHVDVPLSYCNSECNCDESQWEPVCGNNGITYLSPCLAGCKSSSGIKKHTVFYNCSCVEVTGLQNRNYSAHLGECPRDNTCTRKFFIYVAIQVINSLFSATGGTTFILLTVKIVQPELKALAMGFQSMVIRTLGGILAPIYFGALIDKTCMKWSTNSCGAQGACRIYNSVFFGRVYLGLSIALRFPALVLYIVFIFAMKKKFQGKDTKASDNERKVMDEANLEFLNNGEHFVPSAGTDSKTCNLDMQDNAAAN


Experiments:
[1] = patients with moderate CLD; cited from earlier work
UGTs = assay: Inhibition of EZE glucuronidation by bile acids in rat liver S9; format: in vitro ADME; conditions: liver S9 fractions, pH 7.4, probe EZE (ezetimibe), 3 μM; formation of EZE-Ph; rat liver S9, 3 μM EZE, bile acids up to 100 μM; read-out: inhibition of EZE-Ph generation
Procedure: To evaluate the effect of hepatic impairment on the hepatic metabolism of EZE, 0.3 μM, 3 μM, and 30 μM EZE were incubated with rat liver S9 fractions (2 mg of protein/mL) at 37 °C for 60 min in the Tris-HCl-buffered system (100 mM, pH 7.4), consisting of UDPGA (1 mM), MgCl2 (10 mM), and alamethicin (25 μg/mL). To investigate the effect of bile acids on the metabolism of EZE in the liver, 3 μM EZE was incubated with rat or human liver S9 fractions (2 mg of protein/mL) at 37 °C for 60 min in the Tris-HCl-buffered system with or without bile acids at 1, 10, and 100 μM. The total volume of the incubation system was 100 μL. The reactions were terminated by adding 100 μL of ice-cold acetonitrile. Samples were stored at −20 °C until analysis. EZE and EZE-Ph were detected by liquid chromatography with tandem mass spectrometry (LC-MS/MS).

rat primary hepatocytes = assay: Inhibition of EZE-Ph uptake into rat primary hepatocytes by bile acids and rifampicin; conditions: 10 μM EZE-Ph, 10 min
Procedure: Rat primary hepatocytes were isolated from male SD rats as previously described [34]. Fresh rat hepatocytes (120,000 per well) were cultured in Williams’ E medium (containing 0.1 μM dexamethasone, 5% fetal bovine serum, 1% penicillin G/streptomycin, 1% GlutaMAX-I, and 1% insulin–transferrin–selenium) on collagen I-coated 48-well plates. Rat hepatocytes cultured for 4 h under a carbogen atmosphere were directly used for uptake assays.
The hepatocytes were rinsed three times with HBSS (37 °C) and equilibrated in HBSS for 10 min. […] After 10 min of incubation, cells were quickly washed three times with ice-cold HBSS and then lysed by the addition of 300 μL of purified water. The protein content was measured using the BCA protein assay kit. EZE and EZE-Ph were analyzed by LC-MS/MS.
The rates of substrate uptake were normalized using the protein contents of cell lysates.

OATP1B3 [2] = molecular target: T1, OATP1B3; assay: Inhibition of OATP1B3-mediated uptake in OATP1B3-transfected HEK293 cells by bile acids and rifampicin
OATP1B3 [3] = molecular target: T1, OATP1B3
[4] = substrate: O=C(O)C1OC(Oc2ccc([C@@H]3[C@@H](CC[C@H](O)c4ccc(F)cc4)C(=O)N3c3ccc(F)cc3)cc2)C(O)C(O)C1O; assay: Uptake of EZE-Ph into OAT3-transfected HEK293 cells; format: in vitro ADME, human; conditions: other: OAT3 HEK293, uptake time 5 min; 37.0 °C
Procedure: The kinetic parameters and the half inhibitory concentration (IC50) were calculated using GraphPad Prism. […] The intrinsic clearance (CLint) was calculated as CLint = Vmax/Km.

Row | Molecule | inhibition at 60 min (UGTs) [%] | EZE-Ph uptake by rat hepatocytes in the presence of inhibitor (rat primary hepatocytes; inhibitor 1 μM) [%] | EZE-Ph uptake by rat hepatocytes in the presence of inhibitor (rat primary hepatocytes; inhibitor 100 μM) [%] | IC50 (OATP1B3 [2]) [µM] | also measured
1 | C=CCN1CC[C@]23c4c5ccc(O)c4O[C@H]2C(=O)CC[C@@]3(O)[C@H]1C5 [Naloxone] |  |  |  |  | decrease of clearance [1]: over 50%
2 | C[C@H](CCC(=O)NCC(=O)O)[C@H]1CC[C@H]2[C@@H]3[C@H](O)C[C@@H]4C[C@H](O)CC[C@]4(C)[C@H]3C[C@H](O)[C@]12C [GCA, glycocholic acid] | < 40 | 109 | 16.3 | 79.7 | EZE-Ph uptake by rat hepatocytes in the presence of inhibitor (rat primary hepatocytes; inhibitor 10 μM): 64.1%
3 | C[C@H](CCC(=O)NCCS(=O)(=O)O)[C@H]1CC[C@H]2[C@@H]3[C@H](O)C[C@@H]4C[C@H](O)CC[C@]4(C)[C@H]3C[C@H](O)[C@]12C [TCA, taurocholic acid] | < 40 | 94.1 | 13.9 | 93.1 | 
4 | C[C@H](CCC(=O)NCCS(=O)(=O)O)[C@H]1CC[C@H]2[C@@H]3[C@H](O)C[C@@H]4C[C@H](O)CC[C@]4(C)[C@H]3CC[C@]12C [TCDCA, taurochenodeoxycholic acid] |  |  |  |  | IC50 (OATP1B3 [3]): 7.94 µM
5 | OAT3 (Homo sapiens) (protein, host or cells: HEK293) MTFSEILDRVGSMGHFQFLHVAILGLPILNMANHNLLQIFTAATPVHHCRPPHNASTGPWVLPMGPNGKPERCLRFVHPPNASLPNDTQRAMEPCLDGWVYNSTKDSIVTEWDLVCNSNKLKEMAQSIFMAGILIGGLVLGDLSDRFGRRPILTCSYLLLAASGSGAAFSPTFPIYMVFRFLCGFGISGITLSTVILNVEWVPTRMRAIMSTALGYCYTFGQFILPGLAYAIPQWRWLQLTVSIPFFVFFLSSWWTPESIRWLVLSGKSSKALKILRRVAVFNGKKEEGERLSLEELKLNLQKEISLAKAKYTASDLFRIPMLRRMTFCLSLAWFATGFAYYSLAMGVEEFGVNLYILQIIFGGVDVPAKFITILSLSYLGRHTTQAAALLLAGGAILALTFVPLDLQTVRTVLAVFGKGCLSSSFSCLFLYTSELYPTVIRQTGMGVSNLWTRVGSMVSPLVKITGEVQPFIPNIIYGITALLGGSAALFLPETLNQPLPETIEDLENWSLRAKKPKQEPEVEKASQRIPLQPHGPGLGSS |  |  |  |  | Km [4]: 166 µM; Vmax [4]: 0.000306 µmol/min/mg; Vmax/Km [4]: 1.84 µL/min/mg
